Like-named read-outs stand apart in the source and are kept apart here.
Tests used:
[1] = test system: RPMI-8226 myeloma cells; test: Anti-myeloma activity, inhibition of cell proliferation; assay type: cell-based; conditions: Homo sapiens, 72 hours incubation, cell count
Method: After incubation in RPMI-1640 (containing 10% FBS and 1% Penn-strep) for 72 hours, cell count was determined and IC50 values were calculated as inhibitory effect against cell proliferation (referring to Journal of Clinical Pathology, 2006, 59, 947-951.).

[2] = target: cytidine deaminase: CDA (1-146aa), Human, His-tagged, Recombinant (Homo sapiens, UniProt P32320); test: Stability against cytidine deaminase (HPLC)
cytidine deaminase: CDA (1-146aa), Human, His-tagged, Recombinant, sequence (P32320 whole entry): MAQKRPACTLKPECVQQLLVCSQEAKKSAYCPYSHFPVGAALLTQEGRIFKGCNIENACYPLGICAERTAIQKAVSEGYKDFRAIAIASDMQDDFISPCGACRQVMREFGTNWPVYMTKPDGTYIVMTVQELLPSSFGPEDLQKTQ
Method: Stability of Silyl Etherified Derivatives of 5-azacytidines in Carbohydrate Moiety Against Cytidine Deaminase
About 1 mg each of the silyl etherified derivatives of 5-azacytidines in carbohydrate moiety (referring to formula (1a)) was dissolved in 1 mL of acetonitrile. 10 μL of the solution was diluted with 1 mL of PBS. 10 μL of PBS solution of cytidine deaminase was added to the solution and stirred at 37° C. for about 1 hour. 1 mL of acetonitrile was added to the reaction solution and separated by centrifugation. The supernatant was analyzed with HPLC.
Cytidine deaminase: CDA (1-146aa), Human, His-tagged, Recombinant cytidine deaminase (ATGen)
Column: CAPCELL PAK ADME (4.6 mm×150 mm, particle size: 3 μm)
Elution: eluate A=Purified water containing 10 mM ammonium formate • eluate B=Acetonitrile • Gradient mode: A:B=99:1→5:95/30 minutes

[3] = Non-enzymatic hydrolysis in PBS solution at 37° C. (HPLC); assay type: physicochemical; conditions: 10 mM PBS; for 5-Azacytidine or 2′-deoxy-5-azacytidine (%) After 4 hours / 5-Azacytidine or 2′-deoxy-5-azacytidine (%) After 8 hours / 5-Azacytidine or 2′-deoxy-5-azacytidine (%) After 24 hours: released parent by HPLC; for production of the desilylated parent (5-azacytidine or 2′-deoxy-5-azacytidine): traced by HPLC
Method: Non-Enzymatic Hydrolysis of Silyl Etherified Derivatives of 5-Azacytidines in Carbohydrate Moiety
5 μL of the solution was added to 100 μL of 10 mM PBS solution and stirred at 37° C. The reactions were traced by HPLC analysis.
HPLC conditions were same as those in test example 1.

[4] = PBS, cytidine deaminase, 37° C., about 1 hour, peak of the starting material

Compound	IC50 [1]	stability against cytidine deaminase (in words) ([2]; PBS, cytidine deaminase, 37° C.)	Change in HPLC pattern [2, 4]	Change in HPLC pattern [2]	5-Azacytidine or 2′-deoxy-5-azacytidine (%) After 4 hours [3]	5-Azacytidine or 2′-deoxy-5-azacytidine (%) After 8 hours [3]	5-Azacytidine or 2′-deoxy-5-azacytidine (%) After 24 hours [3]	production of the desilylated parent (5-azacytidine or 2′-deoxy-5-azacytidine) [3]
Nc1ncn([C@H]2C[C@H](O)[C@@H](CO)O2)c(=O)n1 [2′-Deoxy-5-azacytidine, 2′-deoxy-5-azacytidine, reference compound]	30 nM	disappeared completely	The peak of the starting material disappeared	–	–	–	–	–
CC(C)(C)[Si](C)(C)OC[C@H]1O[C@@H](n2cnc(N)nc2=O)[C@H](O)[C@@H]1O [compound E, 5′-O-(tert-Butyldimethylsilyl)-5-azacytidine]	–	–	–	Almost no change in the peak of the starting	–	–	–	–
CC[Si](CC)(CC)OC[C@H]1O[C@@H](n2cnc(N)nc2=O)[C@H](O)[C@@H]1O [compound J, 5′-O-Triethylsilyl-5-azacytidine]	656 nM	–	–	Almost no change in the peak of the starting	16%	22%	62%	production of 5-azacytidine was confirmed
CC[Si](CC)(CC)OC[C@H]1O[C@@H](n2cnc(N)nc2=O)C[C@@H]1O [compound K, 5′-O-Triethylsilyl-2′-deoxy-5-azacytidine]	270 nM	–	Almost no change in the peak of the starting	–	10%	12%	48%	production of corresponding deskill form (2′-deoxy-5-azacytidine) was confirmed

— patent publication US10227374B2, “Silyl etherified derivatives of 5-azacytidines in carbohydrate moiety” (OHARA PHARMACEUTICAL CO., LTD., priority 2016, dated 2019)
